Measured values taken from patent US9458220B2 (priority 2010, dated 2016).
Where two headings read alike, the source gives them in different places. Primed or numbered codes have the meaning given here. Where no end group is shown, it is not given here. [ ]: non-standard residue; d: D form. PEG8′ = non-peptide PEG linker of 8 ethylene glycol units

Experiments:
[1] = test system: mice; assay: Comparative insulin tolerance test in mice; assay type: in vivo; details: result in words
Procedure: The activity of the compounds in vivo was also tested by administering the compounds to mice. Food was removed four hours prior to administering peptide to normal mice and withheld for the duration of the study. Glucose was measured just prior to administration of test compounds and at 1, 2, 3, 6 and 8, 12, 16, 20 and 24 hours after administration. […] FIGS. 29B and 29C provide data on blood glucose concentrations over 8 hours after administration of the listed analogs.
The compounds were tested at two different concentrations (27 nmol/kg and 90nmol/kg).
This single chain analog comprises a 20 kDa PEG linked to the side chain of the single lysine residue in the linking moiety (PEG8-K-PEG4) that joins the A chain and the B chain. […] FIGS. 33C and 33D show the blood glucose AUC24 hrs in mice administered Detemir and MIU-56, respectively.

[2] = biological target: IR-B (Homo sapiens, UniProt P06213); assay: In vitro activity at IR-B relative to native insulin; assay type: cell-based; details: for % Insulin Activity IR-B: Table 17
[3] = biological target: IR-A (Homo sapiens, UniProt P06213); assay: In vitro activity at IR-A relative to native insulin; assay type: cell-based
[4] = biological target: IGF-1 R (Homo sapiens, UniProt P08069); assay: In vitro activity at IGF-1 R relative to native insulin; assay type: cell-based; details: for % Insulin Activity IGF-1 R: Table 17
[5] = biological target: T1, human insulin receptor (Homo sapiens, UniProt P06213); assay: Insulin receptor competition binding assay (scintillation proximity)
T1 construct: expressed in transfected cells; plasma membrane fragments

[6] = biological target: T2, human IGF-1 receptor (Homo sapiens, UniProt P08069); assay: IGF-1 receptor competition binding assay (scintillation proximity); details: Table 9
T2 construct: expressed in transfected cells; plasma membrane fragments

B^1(C16-K0,H5,H10,Y16,L17)25a: A^1(N18,N21) [MIU-36]
ability to reduce and sustain low blood glucose [1]: more basal and sustained lowered glucose levels relative to native insulin

GE5W-B^1(A5H10Y16L17)25-C^1-A^1(H8N18N21) [GE5W-Ala, B5]
IR-B ([2]; Table 18): 2.3% | IR-A ([3]; Table 18): 8.6% | IGF-1 R ([4]; Table 18): 0.3%

CC[C@H](C)[C@H](NC(=O)CN)C(=O)N[C@H](C(=O)N[C@@H](CC(=O)O)C(=O)N[C@@H](CCC(=O)O)C(=O)N[C@H]1CSSC[C@@H]2NC(=O)[C@H](CO)NC(=O)[C@H](CCCNC(=N)N)NC(=O)[C@H](Cc3ccccc3)NC(=O)[C@H](CSSC[C@H](NC(=O)[C@H](CC(C)C)NC(=O)[C@@H](NC(=O)[C@H](CCC(=O)O)NC(=O)[C@@H]3CCCN3C(=O)CN)[C@@H](C)O)C(=O)NCC(=O)N[C@@H](CO)C(=O)N[C@@H](Cc3c[nH]cn3)C(=O)N[C@@H](CC(C)C)C(=O)N[C@@H](C(C)C)C(=O)N[C@@H](CCC(=O)O)C(=O)N[C@@H](C)C(=O)N[C@@H](CC(C)C)C(=O)N[C@@H](Cc3ccc(O)cc3)C(=O)N[C@@H](CC(C)C)C(=O)N[C@@H](C(C)C)C(=O)N[C@H](C(=O)NCC(=O)N[C@@H](CC(=O)O)C(=O)N[C@@H](CCCNC(=N)N)C(=O)NCC(=O)N[C@@H](Cc3ccccc3)C(=O)N[C@@H](Cc3ccc(O)cc3)C(=O)N[C@@H](Cc3ccccc3)C(=O)N[C@@H](CC(N)=O)C(=O)N[C@@H](CCCCN)C(=O)N3CCC[C@H]3C(=O)N[C@H](C(N)=O)[C@@H](C)O)CSSC[C@@H](C(=O)N[C@@H](C)C(N)=O)NC(=O)[C@H](Cc3ccc(O)cc3)NC(=O)[C@H](CCSC)NC(=O)[C@H](CCC(=O)O)NC(=O)[C@H](CC(C)C)NC(=O)[C@H](CCCNC(=N)N)NC(=O)[C@H](CCCNC(=N)N)NC(=O)[C@H](CC(C)C)NC(=O)[C@H](CC(=O)O)NC2=O)NC1=O)C(C)C
Insulin Receptor % insulin (in test) ([5]; Table 9): 19.1% | Insulin Receptor % native insulin activity (0.6 nM) ([5]; Table 9): 37.7% | Ratio ([5]; Table 9, IGF-1 receptor IC50 over insulin receptor IC50): 22.6 | IGF-1 Receptor % IGF-1 (in test) [6]: 0.3%

B^1(H5,Y16,L17)25-C^1(K8)-A^1(N18,21) (GPEHLCGAELVDALYLVCGDRGFYGYGSSSRKAPQTGIVDECCFRSCDLRRLENYCN) [MIU-67, two 10K PEG chains, at the N-terminus and at position C8]
% Insulin Activity IR-B [2]: 0.1% | % Insulin Activity IGF-1 R [4]: <0.1% | ability to reduce and sustain low blood glucose [1]: roughly equivalent to MIU-59 administered at 40 nmol/kg

B^1(H5, 10Y16L17R29)30-C^1des9-12-A^1(H8, N18, 21) (GPEHLCGAHLVDALYLVCGDRGFYFNKRTGYGSSSRRGIVDECCHRSCDLRRLENYCN) [MIU-43]
IR-B ([2]; Table 19): 16.7% | IR-A ([3]; Table 19): 97.5% | IGF-1 R ([4]; Table 19): 14.2%

B1, A14-10K B^1(H5, 10Y16L17R29)29: A^1(H8K14N18, 21) (chain 1 GPEHLCGAHLVDALYLVCGDRGFYFNKR; chain 2 GIVDECCHRSCDLKRLENYCN) [di-10K-TC]
IR-B ([2]; Table 19): 2.1% | IR-A ([3]; Table 19): 6.4%

B^1(H5, 10Y16L17A24)25-C^1-A^1(H8N18, N21) [Ala, B24]
IR-B [2]: 0.4% | IR-A [3]: 0.1% | IGF-1 R [4]: 0.3%

B1, A14-10K B^1(H5, 10Y16L17R29)30-C^1des9-12-A^1(H8, K14, N18, 21) (GPEHLCGAHLVDALYLVCGDRGFYFNKRTGYGSSSRRGIVDECCHRSCDLKRLENYCN) [MIU-79]
IR-B ([2]; Table 19): 0.2% | IR-A ([3]; Table 19): 1.7%

B^1(H5, 10Y16L17R29)30-C^1des9-12-A^1(H8, K14, N18, 21) (GPEHLCGAHLVDALYLVCGDRGFYFNKRTGYGSSSRRGIVDECCHRSCDLKRLENYCN) [DP8Mut3KA14]
IR-B ([2]; Table 19): 12.6% | IR-A ([3]; Table 19): 132.2%

CC[C@H](C)[C@H](NC(=O)CNC(=O)[C@@H]1CCCN1C(=O)[C@H](C)N)C(=O)N[C@H](C(=O)N[C@@H](CC(=O)O)C(=O)N[C@@H](CCC(=O)O)C(=O)N[C@H]1CSSC[C@@H]2NC(=O)[C@H](CO)NC(=O)[C@H](CCCNC(=N)N)NC(=O)[C@H](Cc3ccccc3)NC(=O)[C@H](CSSC[C@H](NC(=O)[C@H](CC(C)C)NC(=O)[C@@H](NC(=O)[C@H](CCC(=O)O)NC(=O)[C@@H]3CCCN3C(=O)CN)[C@@H](C)O)C(=O)NCC(=O)N[C@@H](C)C(=O)N[C@@H](CCC(=O)O)C(=O)N[C@@H](CC(C)C)C(=O)N[C@@H](C(C)C)C(=O)N[C@@H](CC(=O)O)C(=O)N[C@@H](C)C(=O)N[C@@H](CC(C)C)C(=O)N[C@@H](Cc3ccc(O)cc3)C(=O)N[C@@H](CC(C)C)C(=O)N[C@@H](C(C)C)C(=O)N[C@H](C(=O)NCC(=O)N[C@@H](CC(=O)O)C(=O)N[C@@H](CCCNC(=N)N)C(=O)NCC(=O)N[C@@H](Cc3ccccc3)C(=O)N[C@@H](Cc3ccc(O)cc3)C(=O)N[C@@H](Cc3ccccc3)C(=O)N[C@@H](CC(N)=O)C(=O)N[C@@H](CCCCN)C(=O)N3CCC[C@H]3C(=O)N[C@H](C(N)=O)[C@@H](C)O)CSSC[C@@H](C(=O)N[C@@H](C)C(N)=O)NC(=O)[C@H](Cc3ccc(O)cc3)NC(=O)[C@H](CCSC)NC(=O)[C@H](CCC(=O)O)NC(=O)[C@H](CC(C)C)NC(=O)[C@H](CCCNC(=N)N)NC(=O)[C@H](CCCNC(=N)N)NC(=O)[C@H](CC(C)C)NC(=O)[C@H](CC(=O)O)NC2=O)NC1=O)C(C)C [IGF1(Y^B16L^B17)(AlaPro)^A-1, 0]
% of Insulin Activity ([5]; Table 8): 37.12%

B^1(H5,H10,Y16,L17,C16rE-K22)25a: A^1(N18,N21) [MIU-37]
ability to reduce and sustain low blood glucose [1]: more basal and sustained lowered glucose levels relative to native insulin

B1-20K B^1(H5, 10Y16L17K29)29: A^1(H8N18, 21) [MIU-78]
IR-B [2]: 3.2% | IR-A [3]: 8.2%

B1-20K B^1(H5, 10Y16L17K29)29-A^1(H8N18, 21) [MIU-77]
IR-A [3]: 0.1% | activity at the insulin type-A receptor on addition of a 20 kDa PEG [3]: ~100 fold

B^1(H5, 10Y16L17K29)29: A^1(H8, N18, 21) [DP3(TC)]
IR-B ([2]; Table 19): 33.1% | IR-A ([3]; Table 19): 159.8%

B^1(H5, 10Y16L17K29)29-A^1(H8, N18, 21) [DP3(SC)]
IR-A ([3]; Table 19): 0.03%

B^1(H5, 10Y16L17)25-C^1-A^1(T8N18, 21) (GPEHLCGAHLVDALYLVCGDRGFYGYGSSSRRAPQTGIVDECCTRSCDLRRLENYCN) [Thr, A8]
IR-B ([2]; Table 18): 8.4% | IR-A ([3]; Table 18): 20.4% | IGF-1 R ([4]; Table 18): 3.7%

C8-PEG20K B^1(H5, Y16, L17)25-PEG8-K-PEG4-A^1(N18, N21) (GPEHLCGAELVDALYLVCGDRGFY[PEG8′]KGIVDECCFRSCDLRRLENYCN; not fully specified (some residues, bridges); ends and bridges not checked) [MIU-56]
ability to reduce and sustain low blood glucose [1]: sustained duration of action for 24 hours

B^1(H5,Y16,L17, K22)25-C^1(K8)-A^1(N18,21) (GPEHLCGAELVDALYLVCGDKGFYGYGSSSRKAPQTGIVDECCFRSCDLRRLENYCN) [MIU-68, two 10K PEG chains, at the N-terminus and at amino acid B22]
% Insulin Activity IR-B [2]: 0.1% | % Insulin Activity IGF-1 R [4]: <0.1%

B^1(A5H10Y16L17)25-C^1-A^1(H8N18N21) [Ala, B5]
IR-B ([2]; Table 18): 5.7% | IGF-1 R ([4]; Table 18): 2.5%

B^1(H5,H10,Y16,L17)25a: A^1(H8,rEC16-K14,N18,N21) [MIU-41]
ability to reduce and sustain low blood glucose [1]: more basal and sustained lowered glucose levels relative to native insulin

B^1(H5,H10,Y16,L17)25-C^1-A^1(H8,N18,N21) (GPEHLCGAHLVDALYLVCGDRGFYGYGSSSRRAPQTGIVDECCHRSCDLRRLENYCN) [MIU-35]
IR-B ([2]; Table 18): 17.4% | IR-A ([3]; Table 18): 61.4% | % Insulin Activity IGF-1 R [4]: 3.2% | IGF-1 R ([4]; Table 18): 3.2%

B^1(H5,Y16,L17)25-C^1(K8)-A^1(K14, N18,21) (GPEHLCGAELVDALYLVCGDRGFYGYGSSSRKAPQTGIVDECCFRSCDLKRLENYCN) [MIU-69, two 10K PEG chains, at the N-terminus and at amino acid A14]
% Insulin Activity IGF-1 R [4]: <0.1%

B1: GE5W-B^1(H5, 10Y16L17)25-C^1-A^1(A1H8N18, 21) (peptide)
chain: GEEEEEWGPEHLCGAHLVDALYLVCGDRGFYGYGSSSRRAPQTAIVDECCHRSCDLRRLENYCN
IR-B ([2]; Table 18): 0.7% | IR-A ([3]; Table 18): 2.1% | IGF-1 R ([4]; Table 18): 0.5%
